pIC50: −log10 of the molar value. Where a name gives a salt, the structure may show the parent alone.
Tests used:
RON kinase = biological target: T1, RON kinase (Homo sapiens, UniProt Q04912); assay: RON kinase enzyme inhibitory activity, FRET (TR-FRET) technique; assay type: biochemical; conditions: 60 min reaction
T1 construct: purchased Carna Bioscience
Protocol: The enzyme inhibitory activity (IC50) of the thienopyridine derivative was measured using FRET (fluorescence resonance energy transfer) technique. RON kinase (Carna Bioscience) was diluted with a kinase assay buffer (50 mM HEPES pH 7.5, 1 mM EGTA, 10 mM MgCl2, 2 mM DTT, and 0.01% Tween-20) to a concentration of 2× (0.4 nM) the final reaction concentration and the dilution was added to a 384-well plate at 5 μL/well. As sample compounds, the compounds synthesized in the examples of the present invention and the compounds of the comparative examples were used. The sample compounds were respectively dissolved in 100% DMSO to obtain 1 mM stock solutions, which were then subjected to eight 10-fold serial dilutions. The sample compounds were diluted with the kinase assay buffer to a concentration of 4× the final reaction concentration, and the dilutions were added to the 384-well plate at 2.5 μL/well. The plate was incubated at room temperature for 15 minutes. Next, 0.25 M ATP solution (Sigma Aldrich) was diluted with the kinase reaction buffer to a concentration of 4× (60 μM) the final reaction concentration, and a tyrosine peptide substrate (Perkin-Elmer) was diluted therein to a concentration of 4× (400 nM) the final reaction concentration. The dilution was added to the 384-well plate at 2.5 μL/well. Then, the 384-well plate was incubated at room temperature and the reaction was allowed to proceed for 60 minutes. After 60 minutes, EDTA (Sigma Aldrich) was diluted with TR-FRET detection buffer (Perkin-Elmer) to a concentration of 4× (40 mM) the final reaction concentration. A europium-labeled anti-phosphotyrosine antibody (Perkin-Elmer) was diluted in the above EDTA dilution to a concentration of 4× (8 nM) the final reaction concentration to prepare a stop solution of the RON kinase reaction. The stop solution was added to the 384-well plate at 10 μL/well to terminate the reaction, and the plate was incubated at room temperature for 60 minutes. Thereafter, the plate was read on Victor X5 plate reader (Perkin-Elmer). At this time, the excitation wavelength was 340 nm and the emission wavelengths were 620 nm and 665 nm. The IC50 values of the sample compounds were determined using GraphPad Prism™ 5 by expressing the emission energy at 665 nm as a function of the sample compound concentration.

[1] = tested on: RON-activated KM12C colon cancer cell line; assay: Cell killing efficacy, trypan blue exclusion assay, KM12C; assay type: cell-based; conditions: 48 hours
Protocol: (§1) Two colon cancer cell lines, RON-activated KM12C (80015, KCLB, MEM+10% FBS) and RON-mutated (Δ160) HT-29 (30038, KCLB, RPMI+10% FBS) were prepared in 6-well plates at 5×10^4 cells/well, respectively. After 24 hours, while freshly changing the medium, the sample compounds were added to the wells at a concentration of 1 μM or 5 μM and the plates were allowed to stand for 48 hours.
(§2) As the sample compounds, the compounds synthesized in the examples of the present invention and the compounds of the comparative examples were used.
(§3) After 48 hours, the cell suspensions were collected and centrifuged (1,500 rpm, 4 min.) to obtain the cells, and live cells and dead cells were quantitated (n=2) through a trypan blue (15250-061, Gibco) exclusion assay. The statistical analysis was performed using Excel™ T-test from Microsoft.
(§4) The cell death rates of the compounds of Examples and Comparative Examples were respectively measured and the results are shown in Table 4 as relative ratios to Comparative Example 1.

[2] = tested on: RON-mutated (Δ160) HT-29 colon cancer cell line; assay: Cell killing efficacy, trypan blue exclusion assay, HT-29; assay type: cell-based; conditions: HT29 cell, 48 hours
Protocol: as §1, §2, §3, §4

T1 sequence (Q04912 25-1400): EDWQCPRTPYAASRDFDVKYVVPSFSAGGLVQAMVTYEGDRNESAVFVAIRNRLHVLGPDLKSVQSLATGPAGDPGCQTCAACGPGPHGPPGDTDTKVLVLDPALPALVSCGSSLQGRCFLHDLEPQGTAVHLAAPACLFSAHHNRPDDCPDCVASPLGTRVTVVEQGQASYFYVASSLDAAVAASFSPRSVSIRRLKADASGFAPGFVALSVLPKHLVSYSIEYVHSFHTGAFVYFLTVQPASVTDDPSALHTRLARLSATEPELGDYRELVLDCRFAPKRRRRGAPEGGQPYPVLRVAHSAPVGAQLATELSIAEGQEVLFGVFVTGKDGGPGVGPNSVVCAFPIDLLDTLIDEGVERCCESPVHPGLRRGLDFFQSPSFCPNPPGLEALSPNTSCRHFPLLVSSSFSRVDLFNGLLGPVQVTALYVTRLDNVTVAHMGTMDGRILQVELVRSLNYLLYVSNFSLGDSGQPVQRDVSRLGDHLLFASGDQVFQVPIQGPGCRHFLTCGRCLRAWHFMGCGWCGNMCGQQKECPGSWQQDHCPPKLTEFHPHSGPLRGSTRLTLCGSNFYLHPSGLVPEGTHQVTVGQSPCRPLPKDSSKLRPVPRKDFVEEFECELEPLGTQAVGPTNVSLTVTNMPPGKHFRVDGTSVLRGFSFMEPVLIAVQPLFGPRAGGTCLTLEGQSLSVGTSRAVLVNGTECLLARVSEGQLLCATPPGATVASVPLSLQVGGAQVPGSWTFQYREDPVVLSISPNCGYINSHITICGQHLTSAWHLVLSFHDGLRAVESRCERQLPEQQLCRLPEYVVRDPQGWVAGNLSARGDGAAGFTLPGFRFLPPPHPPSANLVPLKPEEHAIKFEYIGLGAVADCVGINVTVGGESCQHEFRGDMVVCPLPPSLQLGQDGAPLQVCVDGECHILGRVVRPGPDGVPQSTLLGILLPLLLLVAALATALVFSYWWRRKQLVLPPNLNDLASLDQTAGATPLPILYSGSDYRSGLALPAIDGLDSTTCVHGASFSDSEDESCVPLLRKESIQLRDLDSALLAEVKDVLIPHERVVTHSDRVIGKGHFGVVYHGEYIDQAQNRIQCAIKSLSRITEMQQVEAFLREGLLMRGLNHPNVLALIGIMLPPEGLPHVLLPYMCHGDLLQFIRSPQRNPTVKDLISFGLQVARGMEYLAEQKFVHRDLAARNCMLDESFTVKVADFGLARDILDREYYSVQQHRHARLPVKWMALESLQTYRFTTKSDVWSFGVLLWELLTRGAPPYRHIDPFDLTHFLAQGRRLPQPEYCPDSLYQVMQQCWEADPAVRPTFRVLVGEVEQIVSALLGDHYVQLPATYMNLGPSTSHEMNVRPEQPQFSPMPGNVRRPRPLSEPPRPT

SMILES	pIC50 (RON kinase)	further results
COCCNCc1ccc(-c2cc3nccc(Oc4ccc(NC(=O)c5c(OC)ccn(-c6ccc(Cl)cc6)c5=O)cc4F)c3s2)nc1 [Example 13, 1-(4-chlorophenyl)-N-(3-fluoro-4-{[2-(5-{[(2-methoxyethyl)amino]methyl}pyridin-2-yl)thieno[3,2-b]pyridin-7-yl]oxy}phenyl)-4-methoxy-2-oxo-1,2-dihydropyridine-3-carboxamide Hydrochloride]	8.94	
CCOc1ccn(-c2ccc(C(F)(F)F)cc2)c(=O)c1C(=O)Nc1ccc(Oc2ccnc3cc(-c4ccc(CNCCOC)cn4)sc23)c(F)c1 [Example 12, 4-ethoxy-N-(3-fluoro-4-{[2-(5-{[(2-methoxyethyl)amino]methyl}pyridin-2-yl)thieno[3,2-b]pyridin-7-yl]oxy}phenyl)-2-oxo-1-(4-(trifluoromethyl)phenyl)-1,2-dihydropyridine-3-carboxamide Hydrochloride]	8.68	
CCOc1ccn(-c2ccc(OC)cc2)c(=O)c1C(=O)Nc1ccc(Oc2ccnc3cc(-c4ccc(CNCCOC)cn4)sc23)c(F)c1 [Example 15, 4-ethoxy-N-(3-fluoro-4-{[2-(5-{[(2-methoxyethyl)amino]methyl}pyridin-2-yl)thieno[3,2-b]pyridin-7-yl]oxy}phenyl)-1-(4-methoxyphenyl)-2-oxo-1,2-dihydropyridine-3-carboxamide Hydrochloride]	8.53	
CCOc1ccn(-c2ccccc2)c(=O)c1C(=O)Nc1ccc(Oc2ccnc3cc(-c4ccc(CN5CCN(C)CC5)cn4)sc23)c(F)c1.Cl [Example 34]		Cell death rate (Relative to Comp. Ex. 1) ([1]; 1 μM): x 2.07; Cell death rate (Relative to Comp. Ex. 1) ([1]; 5 μM): x 1.11; Cell death rate (Relative to Comp. Ex. 1) ([2]; 1 μM): x 2.12; Cell death rate (Relative to Comp. Ex. 1) ([2]; 5 μM): x 1.66
CCOc1ccn(-c2ccc(F)cc2)c(=O)c1C(=O)Nc1ccc(Oc2ccnc3cc(-c4ccc(CN(CCOC)C(=O)OC(C)(C)C)cn4)sc23)c(F)c1 [Example 6, t-butyl {[6-(7-{4-[4-ethoxy-1-(4-fluorophenyl)-2-oxo-1,2-dihydropyridine-3-carboxamido]-2-fluorophenoxy}thieno[3,2-b]pyridin-2-yl)pyridin-3-yl]methyl}(2-methoxyethyl)carbamate]	7.66	
COCCNCc1ccc(-c2cc3nccc(Oc4ccc(NC(=O)c5cccn(-c6ccccc6)c5=O)cc4F)c3s2)nc1 [Example 5, N-(3-fluoro-4-{[2-(5-{[(2-methoxyethyl)amino]methyl}pyridin-2-yl)thieno[3,2-b]pyridin-7-yl]oxy}phenyl)-2-oxo-1-phenyl-1,2-dihydropyridine-3-carboxamide Hydrochloride]	8.94	
COCCNCc1ccc(-c2cc3nccc(Oc4ccc(NC(=O)c5c(OC)ccn(-c6ccc(F)cc6)c5=O)c(Cl)c4)c3s2)nc1 [Example 10, N-(2-chlor-4-{[-2-(5-{[(2-methoxyethyl)amino]methyl}pyridin-2-yl)thieno[3,2-b]pyridin-7-yl]oxy}phenyl)-1-(4-fluorophenyl)-4-methoxy-2-oxo-1,2-dihydropyridine-3-carboxamide Hydrochloride]	8.25	

Continued, in another order:

pIC50 (RON kinase)	SMILES	further results
7.62	COCCNCc1ccc(-c2cc3nccc(Oc4ccc(NC(=O)c5cc(Cl)cn(-c6ccc(F)cc6)c5=O)cc4F)c3s2)nc1 [Example 24, 5-chloro-N-(3-fluoro-4-{[2-(5-{[(2-methoxyethyl)amino]methyl}pyridin-2-yl)thieno[3,2-b]pyridin-7-yl]oxy}phenyl)-1-(4-fluorophenyl)-2-oxo-1,2-dihydropyridine-3-carboxamide Hydrochloride]	
8.43	CCOc1ccn(-c2ccc(F)cc2)c(=O)c1C(=O)Nc1ccc(Oc2ccnc3cc(-c4ccc(CNCCOC)cn4)sc23)cc1Cl [Example 26, N-(2-chloro-4-{[2-(5-{[(2-methoxyethyl)amino]methyl}pyridin-2-yl)thieno[3,2-b]pyridin-7-yl]oxy}phenyl)-4-ethoxy-1-(4-fluorophenyl)-2-oxo-1,2-dihydropyridine-3-carboxamide Hydrochloride]	
8.09	COCCNCc1ccc(-c2cc3nccc(Oc4ccc(NC(=O)c5cc(Br)cn(-c6ccc(F)cc6)c5=O)cc4F)c3s2)nc1 [Example 23, 5-bromo-N-(3-fluoro-4-{[2-(5-1 [(2-methoxyethyl)amino]methyl}pyridin-2-yl)thieno[3,2-b]pyridin-7-yl]oxy}phenyl)-1-(4-fluorophenyl)-2-oxo-1,2-dihydropyridine-3-carboxamide Hydrochloride]	
8.80	COCCNCc1ccc(-c2cc3nccc(Oc4ccc(NC(=O)c5c(C)cnn(-c6ccc(F)cc6)c5=O)cc4F)c3s2)nc1 [Example 17, N-(3-fluoro-4-{[2-(5-{[(2-methoxyethyl)amino]methyl}pyridin-2-yl)thieno[3,2-b]pyridin-7-yl]oxy}phenyl)-2-(4-fluorophenyl)-5-methyl-3-oxo-2,3-dihydropyridazine-4-carboxamide Hydrochloride]	
7.99	CCOc1ccn(-c2ccc(F)cc2)c(=O)c1C(=O)Nc1ccc(Oc2ccnc3cc(-c4ccc(CN5CCOCC5)cn4)sc23)cc1Cl [Example 37, N-[2-chloro-4-({2-[5-(morpholinomethyl)pyridin-2-yl]thieno[3,2-b]pyridin-7-yl}oxy)phenyl]-4-ethoxy-1-(4-fluorophenyl)-2-oxo-1,2-dihydropyridine-3-carboxamide Hydrochloride]	
8.46	CCOc1ccn(-c2cccc(OC)c2)c(=O)c1C(=O)Nc1ccc(Oc2ccnc3cc(-c4ccc(CNCCOC)cn4)sc23)c(F)c1 [Example 16, 4-ethoxy-N-(3-fluoro-4-{[2-(5-{[(2-methoxyethyl)amino]methyl}pyridin-2-yl)thieno[3,2-b]pyridin-7-yl]oxy}phenyl)-1-(3-methoxyphenyl)-2-oxo-1,2-dihydropyridine-3-carboxamide Hydrochloride]	
8.59	CCOc1ccn(-c2ccc(Cl)cc2)c(=O)c1C(=O)Nc1ccc(Oc2ccnc3cc(-c4ccc(CN5CCOCC5)cn4)sc23)c(F)c1 [Example 35, 1-(4-chlorophenyl)-4-ethoxy-N-[3-fluoro-4-({2-[5-(morpholinomethyl)pyridin-2-yl]thieno[3,2-b]pyridin-7-yl}oxy)phenyl]-2-oxo-1,2-dihydropyridine-3-carboxamide Hydrochloride]	
8.44	COCCNCc1ccc(-c2cc3nccc(Oc4ccc(NC(=O)c5ccnn(-c6ccccc6)c5=O)cc4F)c3s2)nc1 [Example 19, N-(3-fluoro-4-{[2-(5-{[(2-methoxyethyl)amino]methyl}pyridin-2-yl)thieno[3,2-b]pyridin-7-yl]oxy}phenyl)-3-oxo-2-phenyl-2,3-dihydropyridazine-4-carboxamide Hydrochloride]	
8.71	COCCNCc1ccc(-c2cc3nccc(Oc4ccc(NC(=O)c5cc(C)c(C)n(-c6ccc(F)cc6)c5=O)cc4F)c3s2)nc1 [Example 27, N-(3-fluoro-4-([2-(5-{[(2-methoxyethyl)amino)methyl]pyridin-2-yl}thieno[3,2-b]pyridin-7-yl)oxy]phenyl}-1-(4-fluorophenyl)-5,6-dimethyl-2-oxo-1,2-dihydropyridine-3-carboxamide Hydrochloride]	
8.92	COCCNCc1ccc(-c2cc3nccc(Oc4ccc(NC(=O)c5cc(C)cn(-c6ccc(F)cc6)c5=O)cc4F)c3s2)nc1 [Example 29, N-(3-fluoro-4-{[-2-(5-{[(2-methoxyethyl)amino]methyl}pyridin-2-yl)thieno[3,2-b]pyridin-7-yl]oxy}phenyl)-1-(4-fluorophenyl)-5-methyl-2-oxo-1,2-dihydropyridine-3-carboxamide Hydrochloride]	
8.64	CCOc1ccn(-c2ccc(F)cc2)c(=O)c1C(=O)Nc1ccc(Oc2ccnc3cc(-c4ccc(CN5CCOCC5)cn4)sc23)c(Cl)c1 [Example 36, N-[3-chloro-4-({2-[5-(morpholinomethyl)pyridin-2-yl]thieno[3,2-b]pyridin-7-yl}oxy)phenyl]-4-ethoxy-1-(4-fluorophenyl)-2-oxo-1,2-dihydropyridine-3-carboxamide Hydrochloride]	
